According to ChEMBL document CHEMBL5390305, “Discovery of Ligands for TRIM58, a Novel Tissue-Selective E3 Ligase” (ACS Med Chem Lett, 2023):
In brackets after ≈: the same amount, converted by molar mass.

Tests used:
[1] = molecular target: T1, E3 ubiquitin-protein ligase TRIM58 (Homo sapiens, UniProt Q8NG06); test: Displacement of Ac-DKSDLKAELERKK-C(BODIPY-FL-M)-RLAQIREEKKRKEE-NH2 peptide probe from TRIM58 (279 to 466 residue) (unknown origin) preincubated for 30 mins followed by probe addition by fluorescence polarization method
T1 sequence (Q8NG06 whole entry): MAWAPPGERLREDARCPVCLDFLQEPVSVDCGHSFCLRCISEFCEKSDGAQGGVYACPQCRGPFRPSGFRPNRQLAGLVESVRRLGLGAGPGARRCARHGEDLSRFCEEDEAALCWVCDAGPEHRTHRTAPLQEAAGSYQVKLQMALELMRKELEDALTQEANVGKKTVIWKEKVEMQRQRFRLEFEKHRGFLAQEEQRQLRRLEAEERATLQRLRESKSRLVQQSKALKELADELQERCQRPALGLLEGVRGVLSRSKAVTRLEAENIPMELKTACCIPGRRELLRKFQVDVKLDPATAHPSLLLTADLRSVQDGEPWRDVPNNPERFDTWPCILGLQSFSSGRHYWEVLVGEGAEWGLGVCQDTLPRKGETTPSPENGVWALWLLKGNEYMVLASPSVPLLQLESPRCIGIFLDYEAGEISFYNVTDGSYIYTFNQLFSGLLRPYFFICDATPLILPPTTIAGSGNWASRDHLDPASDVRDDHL

[2] = Apparent permeability across apical to basolateral side in low efflux MDCK cells; format: ADME, cell-based, Canis lupus familiaris; conditions: dog
[3] = Solubility of the compound at pH 6.8 by high-throughput equilibrium solubility assay; format: physicochemical; conditions: buffer
[4] = Lipophilicity, log D of the compound in octanol/buffer system at pH 7.4 by shake-flask based LC/MSMS analysis; format: physicochemical
[5] = molecular target: T1, E3 ubiquitin-protein ligase TRIM58; test: Binding affinity against N-terminal 6His-tagged TRIM58 (251 to 466 residue) (unknown origin) expressed in Escherichia coli BL21 (DE3) by SPR assay

Question: With `c1ccc2cc(-c3nn[nH]n3)c(NCC3CCNCC3)cc2c1` as the molecule, how does the EC50 [1] read?
Answer: Its EC50 is > 100 µM.

Question: Which results are given for `CNc1nc(NCC2CCNCC2)c2cc(-c3ccccc3)ccc2n1`?
Answer: EC50 [1]: 12 µM; Papp A→B [2]: 1.6 ×10⁻⁶ cm/s; solubility thermodynamic [3]: 80 µM (≈ 27.8 µg/mL)

Question: For `CNc1nc(NC)c2cc(-c3ccccc3)ccc2n1`, which EC50 [1] is on record?
Answer: Its EC50 is 75 µM.

Question: And the logD [4]?
Answer: Its logD is 1.7.

Question: And the solubility thermodynamic [3]?
Answer: Its solubility thermodynamic is 100 µM (≈ 26.4 µg/mL).

Question: With `CNCCCNc1nc(NCC2CCNCC2)c2cc(-c3ccccc3)ccc2n1` as the molecule, how does the EC50 [1] read?
Answer: The EC50 was > 100 µM.

Question: And the logD [4]?
Answer: The logD was 1.2.

Question: What about the Papp A→B [2] of the same molecule?
Answer: The Papp A→B was 0.6 ×10⁻⁶ cm/s.

Question: And the solubility thermodynamic [3]?
Answer: Its solubility thermodynamic is > 750 µM.

Question: For `CN(C)CCCNc1nc(NCC2CCNCC2)c2cc(-c3ccccc3)ccc2n1`, which EC50 [1] is on record?
Answer: The EC50 was 5.3 µM.

Question: And the logD [4]?
Answer: The logD was < -1.

Question: And the solubility thermodynamic [3]?
Answer: The solubility thermodynamic was > 1000 µM.

Question: What about the Kd [5] of the same molecule?
Answer: Its Kd is 24 µM.

Question: For `c1ccc(-c2ccc3nc(NCC4CC4)nc(NCC4CCNCC4)c3c2)cc1`, which EC50 [1] is on record?
Answer: Its EC50 is 8.6 µM.

Question: And the logD [4]?
Answer: Its logD is 1.1.

Question: And the Papp A→B [2]?
Answer: Its Papp A→B is 3.5 ×10⁻⁶ cm/s.

Question: What about the solubility thermodynamic [3] of the same molecule?
Answer: The solubility thermodynamic was 20 µM (≈ 7.75 µg/mL).

Question: Which EC50 [1] does the source give for `CNc1nc(NCC2CCNCC2)c2cc(C3CCCCC3)ccc2n1` here?
Answer: Its EC50 is 6.6 µM.

Question: What about the logD [4] of the same molecule?
Answer: Its logD is 0.5.

Question: And the Papp A→B [2]?
Answer: Its Papp A→B is 1.1 ×10⁻⁶ cm/s.

Question: What about the solubility thermodynamic [3] of the same molecule?
Answer: Its solubility thermodynamic is > 750 µM.

Question: For `CN(C)CCCNc1nc(NCCc2ccccc2)c2cc(-c3ccccc3)ccc2n1`, which EC50 [1] is on record?
Answer: The EC50 was 12.7 µM.

Question: And the logD [4]?
Answer: Its logD is 3.3.

Question: What about the Papp A→B [2] of the same molecule?
Answer: The Papp A→B was 24 ×10⁻⁶ cm/s.

Question: What about the solubility thermodynamic [3] of the same molecule?
Answer: The solubility thermodynamic was 40 µM (≈ 17 µg/mL).

Question: Which EC50 [1] does the source give for `CNc1nc(NCC2CCNCC2)c2ccccc2n1` here?
Answer: Its EC50 is > 100 µM.

Question: And the logD [4]?
Answer: The logD was -0.8.

Question: And the Papp A→B [2]?
Answer: Its Papp A→B is 1.6 ×10⁻⁶ cm/s.

Question: What about the solubility thermodynamic [3] of the same molecule?
Answer: The solubility thermodynamic was > 750 µM.

Question: Which results are given for `CCCCCCNc1nc(NCCCN(C)C)nc2ccc(-c3ccccc3)cc12`?
Answer: EC50 [1]: 7.4 µM; logD [4]: 4; Papp A→B [2]: 19 ×10⁻⁶ cm/s; solubility thermodynamic [3]: 60 µM (≈ 24.3 µg/mL)

Question: Which results are given for `CNc1nc(OCC2CCNCC2)c2cc(-c3ccccc3)ccc2n1`?
Answer: EC50 [1]: 74 µM; logD [4]: -0.5; Papp A→B [2]: 29 ×10⁻⁶ cm/s; solubility thermodynamic [3]: > 750 µM
